Legend:
Format in all cases: physicochemical
[1] = High humidity test (room temperature, 75±5% relative humidity); settings: for Appearance / Content / Weight gain of moisture absorption: room temperature, 75±5% relative humidity
Description: (§1) The raw material of Polymorph 1 of 3-(4-amino-1-oxo-1,3-dihydro-2H-isoindole-2-yl)-piperidine-2,6-dione (hemihydrate) was distributed homogeneously in open petri dish with thickness of the raw material not more than 5 mm and put into thermostatic and humidostatic incubator at room temperature (about 25° C.) and 75±5% relative humidity. Sample was tested at the 5th and 10th day respectively and the results were contrasted with that of the Day 0. Results were listed in Tab. 4. After high humidity test of 75±5% relative humidity for 10 days, the X-ray powder diffraction pattern was shown in FIG. 9; DSC diagram was in FIG. 10-1; TGA diagram was in FIG. 10-2.
as §1, with “Polymorph II” for “Polymorph 1”, “3-(4-amino-1-oxo-1,3-dihydro-2H-isoindole-2-yl)-piperidine-2,6-dione” for “3-(4-amino-1-oxo-1,3-dihydro-2H-isoindole-2-yl)-piperidine-2,6-dione (hemihydrate)”, “Tab. 9.” for “Tab. 4.”, “FIG. 20;” for “FIG. 9;”, “FIG. 21-1;” for “FIG. 10-1;”, “FIG. 21-2.” for “FIG. 10-2.”
as §1, with “Polymorph III” for “Polymorph 1”, “3-(4-amino-1-oxo-1,3-dihydro-2H-isoindole-2-yl)-piperidine-2,6-dione” for “3-(4-amino-1-oxo-1,3-dihydro-2H-isoindole-2-yl)-piperidine-2,6-dione (hemihydrate)”, “Tab. 14.” for “Tab. 4.”, “FIG. 31;” for “FIG. 9;”, “FIG. 32-1;” for “FIG. 10-1;”, “FIG. 32-2.” for “FIG. 10-2.”

[2] = High temperature test (60° C.); settings: for Appearance / Content / Related substance: 60° C.
Text: The conditions and methods of related substance test involved in this invention were in accordance with HPLC (Appendix VD of Chinese Pharmacopoeia Edition 2005).
Chromatographic conditions and system applicability: octadecylsilane bonded silica as the filler; 0.01 mol/L of potassium dihydrogen phosphate (adjusted to pH 3.5 by phosphoric acid)-methanol-acetonitrile (80:15:5) as the mobile phase; detection wavelength was 240 nm; the number of theoretical plates should be not less than 2000, calculated according to the peak of 3-(4-amino-1-oxo-1,3-dihydro-2H-isoindole-2-yl)-piperidine-2,6-dione. The resolution of the peak of 3-(4-amino-1-oxo-1,3-dihydro-2H-isoindole-2-yl)-piperidine-2,6-dione from the peaks of adjacent impurities should meet requirements.
The raw material of Polymorph I of 3-(4-amino-1-oxo-1,3-dihydro-2H-isoindole-2-yl)-piperidine-2,6-dione (hemihydrate) was put into a clean sealed glass bottle and then put in thermostatic drying chamber at 60° C. Sample was tested at the 5th and 10th day respectively and the results were contrasted with that of the Day 0. Results were listed in Tab. 3. After high temperature test of 60° C. for 10 days, the X-ray powder diffraction pattern was shown FIG. 7; DSC diagram was in FIG. 8.
(§2) The raw material of Polymorph II of 3-(4-amino-1-oxo-1,3-dihydro-2H-isoindole-2-yl)-piperidine-2,6-dione was put into a clean sealed glass bottle and then put in thermostatic drying chamber at 60° C. Sample was tested at the 5th and 10th day respectively and the results were contrasted with that of the Day 0. Results were listed in Tab. 8. After high temperature test of 60° C. for 10 days, the X-ray powder diffraction pattern was shown in FIG. 18; DSC diagram was in FIG. 19.
as §2, with “III” for “II”, “13.” for “8.”, “29;” for “18;”, “30.” for “19.”

[3] = Solubility test according to Chinese Pharmacopoeia Edition 2005; settings: for Dissolving status: within 30 minutes
Description: Test was performed according to the Examples of Chinese Pharmacopoeia Edition 2005. Method: a definite quantity of the Polymorph I of 3-(4-amino-1-oxo-1,3-dihydro-2H-isoindole-2-yl)-piperidine-2,6-dione (hemihydrate) measured accurately was added into a certain quantity of solvent slowly, while the mixture was shaken strongly for 30 seconds every 5 minutes and the dissolving status within 30 minutes was observed. Results were listed in Tab. 1.
(§3) Test was performed according to the Examples of Chinese Pharmacopoeia Edition 2005. Method: a definite quantity of the (acetonitrile) solvated Polymorph II of 3-(4-amino-1-oxo-1,3-dihydro-2H-isoindole-2-yl)-piperidine-2,6-dione measured accurately was added into a certain quantity of solvent slowly, while the mixture was shaken strongly for 30 seconds every 5 minutes and the dissolving status within 30 minutes was observed. Results were listed in Tab. 61.
as §3, with “(acetone)” for “(acetonitrile)”, “polymorph III” for “Polymorph II”, “slowly” for “slowly,”, “11.” for “61.”

Change of appearance and content (in words) ([1]; high humidity test, summary): few obvious change
Moisture absorption (in words) ([1]; high humidity test, summary): very slight moisture absorption
Appearance ([1]; 0 days): off-white powder
Content ([1]; 0 days): 99.87%
Appearance ([1]; 5 days): off-white powder
Content ([1]; 5 days): 99.85%
Weight gain of moisture absorption ([1]; 5 days): 0.65%
Appearance ([1]; 10 days): off-white powder
Content ([1]; 10 days): 99.85%
Weight gain of moisture absorption ([1]; 10 days): 0.66%
Appearance ([2]; 0 days): off-white powder
Content ([2]; 0 days): 99.87%
Related substance ([2]; 0 days): 0.05%
Appearance ([2]; 5 days): off-white powder
Content ([2]; 5 days): 99.86%
Related substance ([2]; 5 days): 0.05%
Appearance ([2]; 10 days): off-white powder
Content ([2]; 10 days): 99.84%
Related substance ([2]; 10 days): 0.06%
Variation of appearance and content (in words) ([2]; high temperature (60° C.) test, summary): few significant variation
Conclusion (solubility) ([3]; 0.1 mol/L HCl solution): slightly
Conclusion (solubility) ([3]; 0.1 mol/L HCl solution, listed as Polymorph 1): slightly soluble
Dissolving status ([3]; 0.1 mol/L HCl solution): fully
Conclusion (solubility) ([3]; 0.1 mol/L NaOH solution): sparingly
Conclusion (solubility) ([3]; 0.1 mol/L NaOH solution, listed as Polymorph 1): sparingly soluble
Dissolving status ([3]; 0.1 mol/L NaOH solution): fully
Conclusion (solubility) ([3]; DMF (N,N-dimethylformamide), listed as Polymorph 1): soluble
Dissolving status ([3]; DMF): fully
Conclusion (solubility) ([3]; DMSO (dimethylsulfoxide)): freely
Conclusion (solubility) ([3]; DMSO (dimethylsulfoxide), listed as Polymorph 1): freely soluble
Dissolving status ([3]; DMSO): fully
Conclusion (solubility) ([3]; acetic acid, listed as Polymorph 1): soluble
Dissolving status ([3]; acetic acid): fully
Conclusion (solubility) ([3]; acetone): slightly
Conclusion (solubility) ([3]; acetone, listed as Polymorph 1): slightly soluble
Dissolving status ([3]; acetone): fully
Conclusion (solubility) ([3]; acetonitrile): slightly
Conclusion (solubility) ([3]; acetonitrile, listed as Polymorph 1): slightly soluble
Dissolving status ([3]; acetonitrile): fully
Conclusion (solubility) ([3]; ethanol): very slightly
Conclusion (solubility) ([3]; ethanol, listed as Polymorph 1): very slightly soluble
Dissolving status ([3]; ethanol): fully
Conclusion (solubility) ([3]; ethyl acetate): very slightly
Conclusion (solubility) ([3]; ethyl acetate, listed as Polymorph 1): very slightly soluble
Dissolving status ([3]; ethyl acetate): fully
Conclusion (solubility) ([3]; methanol): slightly
Conclusion (solubility) ([3]; methanol, listed as Polymorph 1): slightly soluble
Dissolving status ([3]; methanol): fully
Conclusion (solubility) ([3]; water): very slightly
Conclusion (solubility) ([3]; water, listed as Polymorph 1): very slightly soluble
Dissolving status ([3]; water): fully
SMILES: Nc1cccc2c1CN(C1CCC(=O)NC1=O)C2=O (single isomer, unassigned) [Polymorph I, 3-(4-amino-1-oxo-1,3-dihydro-2H-isoindole-2-yl)-piperidine-2,6-dione]
